# Source: patent US8697696B2, “Triazole compounds II” (Roche Palo Alto LLC, priority 2010, dated 2014)
# Biological target: human GABA A α5β3γ2 receptor (Homo sapiens (Human), UniProt P18507+P31644)
# Assay: [3H]flumazenil competition radioligand binding assay, human GABA A α5β3γ2 receptors in HEK293 cells
# Conditions: HEK293 cells expressing human receptors (transiently transfected); 0.5 nM [3H]flumazenil; means of two determinations; read-out: hKi GABA Aα5
# Experimental: The ability of compounds present invention to bind to GABA A receptor subtypes was determined by competition for [^3H]flumazenil (85 Ci/mmol; Roche) binding to HEK293 cells expressing rat (stably transfected) or human (transiently transfected) receptors of composition α1β2/3γ2, α2β3γ2, α3β3γ2 and α5β3γ2.
# Cell pellets were suspended in Krebs-tris buffer (4.8 mM KCl, 1.2 mM CaCl2, 1.2 mM MgCl2, 120 mM NaCl, 15 mM Tris; pH 7.5; binding assay buffer), homogenized by polytron for ca. 20 sec on ice and centrifuged for 60 min at 4° C. (50000 g; Sorvall, rotor: SM24=20000 rpm). The cell pellets were resuspended in Krebs-tris buffer and homogenized by polytron for ca. 15 sec on ice. Protein was measured (Bradford method, Bio-Rad) and aliquots of 1 mL were prepared and stored at −80° C.
# Assays were incubated to equilibrium for 1 hour at 4° C. and harvested onto GF/C uni-filters (Packard) by filtration using a Packard harvester and washing with ice-cold wash buffer (50 mM Tris; pH 7.5). After drying, filter-retained radioactivity was detected by liquid scintillation counting.
# Ki values were calculated using Excel-Fit (Microsoft) and are the means of two determinations.
# Representative test results, obtained by the above described assay measuring binding affinity to HEK293 cells expressing human (h) receptors, are shown in Table 1 below.
row,Structure (SMILES),Ki [nM]
1,"Cc1nc(/C=C/c2c(-c3ccccn3)nnn2C)sc1C(=O)NC(C)C [Example 10, 4-Methyl-2-[(E)-2-(3-methyl-5-pyridin-2-yl-3H-[1,2,3]triazol-4-yl)-vinyl]-thiazole-5-carboxylic acid isopropylamide]",20.7
2,"Cn1nc(OCc2c(-c3ccc(F)cc3)nnn2C)cc1C(=O)NC1CCOCC1 [Example 2, 5-[5-(4-Fluoro-phenyl)-3-methyl-3H-[1,2,3]triazol-4-ylmethoxy]-2-methyl-2H-pyrazole-3-carboxylic acid (tetrahydro-pyran-4-yl)-amide]",45.3
3,"Cc1nnn(-c2ccc(F)cc2)c1COc1cc(C(=O)NN2CCOCC2)n(C)n1 [Example 4, 5-[3-(4-Fluoro-phenyl)-5-methyl-3H-[1,2,3]triazol-4-ylmethoxy]-2-methyl-2H-pyrazole-3-carboxylic acid morpholin-4-ylamide]",22.2
4,"Cc1nc(/C=C/c2c(-c3ccc(F)cc3)nnn2C)sc1C(=O)NC(C)C [Example 6, 2-{(E)-2-[5-(4-Fluoro-phenyl)-3-methyl-3H-[1,2,3]triazol-4-yl]vinyl}-4-methyl-thiazole-5-carboxylic acid isopropylamide]",11.3
5,"Cc1nnn(-c2ccc(F)cc2)c1COc1cc(C(=O)NC2CCOCC2)n(C)n1 [Example 3, 5-[3-(4-Fluoro-phenyl)-5-methyl-3H-[1,2,3]triazol-4-ylmethoxy]-2-methyl-2H-pyrazole-3-carboxylic acid (tetrahydro-pyran-4-yl)-amide]",15.7
6,"Cc1nnn(-c2ccc(F)cc2)c1COc1cc(C(=O)NC2(C)COC2)n(C)n1 [Example 5, 5-[3-(4-Fluoro-phenyl)-5-methyl-3H-[1,2,3]triazol-4-ylmethoxy]-2-methyl-2H-pyrazole-3-carboxylic acid (3-methyl-oxetan-3-yl)-amide]",43.2
7,"Cn1nnc(-c2ccc(F)cc2)c1COc1cc(C(=O)NC2CCOCC2)on1 [Example 1, 3-[5-(4-Fluoro-phenyl)-3-methyl-3H-[1,2,3]triazol-4-ylmethoxyl]isoxazole-5-carboxylic acid (tetrahydro-pyran-4-yl)-amide]",28.8
8,"Cc1nc(/C=C/c2c(C)nnn2-c2ccc(F)cc2)sc1C(=O)NC(C)C [Example 9, 2-{(E)-2-[3-(4-Fluoro-phenyl)-5-methyl-3H-[1,2,3]triazol-4-yl]-vinyl}-4-methyl-thiazole-5-carboxylic acid isopropylamide]",6.8
